Measured values as given in patent US20050203068A1, “Pharmaceutical compositions containing water-soluble prodrugs of propofol and methods of administering same” (priority 2002, published 2005).
Counter-ions that a name gives are not always drawn.

Tests used:
[1] = test system: healthy male volunteers; test: Target controlled infusion (TCI) of AQUAVAN vs propofol: EEG, loss/recovery of consciousness and corneal reflex; format: in vivo, human; conditions: for Time to LOCR (loss of corneal reflex) / Time to ROC (recovery of consciousness) / Time to ROCR (recovery of corneal reflex) / Time to LOC (loss of consciousness): TCI infusion 60 min, propofol targets 5, 3, 1.5 micrograms/ml; for Time to LOC (loss of consciousness): time after start of infusion
Experimental: This example compares the effects of target controlled infusions (TCI) of propofol and of O-phosphonooxymethyl propofol disodium salt (AQUAVAN™) on electrical brain activity and consciousness of healthy male volunteers. A sterile solution was prepared in a 20 mL vial, with 20 mg/mL of AQUAVAN™ and 0.4 wt % NaCl. The pH of the solution was adjusted to 8.6±0.4 with HCl or NaOH, as needed.
Nine male volunteers (age 19 to 35 yrs., body wt. 70 to 86 kg) received propofol as a target controlled infusion (TCI) with three different target concentrations over 60 min. After a washout period of 14 days, the same volunteers received a TCI infusion of AQUAVAN™ with identical propofol target concentrations (crossover design). The infusion scheme was a linear increasing propofol concentration up to 5 micrograms/ml for the first 20 minutes, a target of 3 micrograms/ml for the following 20 minutes, and a target propofol plasma concentration of 1.5 micrograms/ml for the following 20 minutes. At 60 minutes, the infusion was stopped.
The EEG was recorded using the CATEEM® system and the data analysis was based on the lead O1-CZ. All subjects were tested every 1.5 minutes for Loss and Recovery of Consciousness (LOC and ROC), and for Loss and Recovery of Corneal Reflex (LOCR and ROCR). Arterial blood samples were drawn at predetermined times up to 240 minutes after start of the infusion. The AQUAVAN™ and propofol plasma concentrations were measured with an LC/MS/MS validated assay and an HPLC-FL validated assay (see FIG. 1).

[2] = test system: healthy subjects; test: Single bolus AQUAVAN, six cohorts: lowest OAA/S score and duration of sedation; format: in vivo, human
Experimental: (§1) Twenty-four healthy subjects (all ASA 1, 25±5 yrs., 70±8 kg) were randomized into 4 cohorts, with 3 male and 3 female in each. Each of the four cohorts was given a single dose of the study formulation described in Table 1 above (5, 10, 20, and 25 mg/kg, AQUAVAN™ respectively). Anesthetic effect was measured continuously using a BIS-XP monitor (Aspect Medical Systems, Natick, Mass.). The lowest BIS level (BISpeak) was recorded. One week later, propofol was given to the same individuals at a rapid infusion rate of 300 ml/h to reach a similar BISpeak. Heart rate (HR), O2 saturation, systolic (SBP) and diastolic (DBP) blood pressure were monitored non-invasively. Incidence and duration of apnea, loss (LOC) and return (ROC) of consciousness and duration of unconsciousness (DOU) were measured with the OAA/S score. Adverse events were recorded. Statistical analysis was performed using Wilcoxon Signed Ranks Test, Mann-Whitney-U test, Chi-Square test and Pearson correlation where appropriate.
In addition to induction of unconsciousness and duration of general anesthesia (see above), the response of the study subjects to AQUAVAN™ was also examined with regard to sedation. For this purpose, two additional cohorts (n=6 each) were dosed with 15 and 30 mg/kg of AQUAVAN™ as described above. For subjects in all six cohorts, the lowest OAA/S score achieved after AQUAVAN™ administration and the duration of sedation were recorded, with an OAA/S score of 5 indicating no sedation, scores ranging from 4-2 indicating increasingly deep sedated states, and a score of 1 indicating loss of consciousness (LOC)(but allowing for an undirected response to painful tactile stimuli). […] A conscious sedated state typically preceded and followed a period of unconsciousness in subjects who reached LOC. “Mean duration of sedation/LOC” in Table 4 refers to the total time interval from onset of sedation through LOC to recovery of alertness (no sedation).

[3] = test system: healthy volunteers; test: TCI infusion of AQUAVAN over 2 hours: alertness/sedation (OAA/S, BIS), haemodynamics, propofol plasma concentration
Experimental: A sterile solution of AQUAVAN™ was prepared as described for Example 1, above.
Six female (28±3 yrs, 57±4 kg body weight) and 6 male (32±6 yrs., 78±9 kg body weight) volunteers were studied. For a period of 2 hours, a TCI infusion of AQUAVAN™ was administered to provide adequate sedation. The initially selected target concentration of propofol from AQUAVAN™ was 1.8 μg/ml. Sedation was rated as adequate if according to a modified Observers Assessment of Alertness and Sedation Scale (OAA/S) the OAA/S scale value was 2 to 3. After 60 minutes, the target concentration was increased to 2.4 or 3 μg/ml if the OAA/S scale value was 4 or 5, respectively, or reduced to 1.4 μg/ml if the OAA/S scale value was 0 to 1. With an Aspect® A-1000 monitor and two frontal leads the BIS values were recorded. The ECG, blood pressure, heart rate, SaO2 and GPI as well as propofol plasma concentrations were measured. All values are given as mean±standard deviation.

[4] = test system: healthy subjects; test: Single bolus AQUAVAN vs equipotent rapid infusion of propofol: anesthetic effect (BIS, LOC, ROC, DOU), adverse events; format: in vivo, human; conditions: for Pain on injection, incidence / Apnea, incidence / Initial increase in heart rate (HR>90 bpm), incidence: 24 subjects; for Pain on injection, incidence: all cohorts; for Apnea, incidence: dose-dependent; for Initial increase in heart rate (HR>90 bpm), incidence: following administration; for Initial increase in heart rate (HR>90 bpm), incidence / Time of BISpeak (lowest BIS level): p<0.05; for Time of BISpeak (lowest BIS level): AQUAVAN bolus 5-25 mg/kg, propofol rapid infusion 300 ml/h to similar BISpeak; for DOU (duration of unconsciousness) / Time to LOC / Time to ROC: n=6, mean ± SD
Experimental: This example compares the pharmacodynamics of propofol when administered as a single, bolus dose of the prodrug O-phosphonooxymethyl-propofol di-sodium salt (AQUAVAN™) in accordance with the present invention, to the pharmacodynamics of propofol when administered as such. A sterile solution, the “study formulation,” was prepared in a 20 mL vial, with 20 mg/mL of AQUAVAN™ and 0.4 wt % NaCl. The pH of the solution was adjusted to 8.6±0.4 with HCl or NaOH, as needed.
as §1

[5] = test system: patients; conditions: anesthetic induction doses of propofol; Bryson et al.; cited from earlier work
[6] = Cohort 3 (20 mg/kg AQUAVAN bolus; propofol rapid infusion to similar BISpeak)
[7] = Cohort 4 (25 mg/kg AQUAVAN bolus; propofol rapid infusion to similar BISpeak)

CC(C)c1cccc(C(C)C)c1OCOP(=O)(O)O [AQUAVAN, O-phosphonooxymethyl propofol disodium salt]
Time to LOCR (loss of corneal reflex) [1]: 16 ± 5 min
Time to ROC (recovery of consciousness) [1]: 73 ± 13 min
Time to ROCR (recovery of corneal reflex) [1]: 46 ± 15 min
Time to LOC (loss of consciousness) [1]: 9 ± 2 min
Decrease of Median Power Frequency (MPF) in the EEG ([1]; plasma propofol from AQUAVAN compared to plasma propofol from propofol, comparable plasma concentrations): greater decrease of the MPF
Duration - range ([2]; Cohort 1: 5 mg/kg bolus): 0 to 16 min
Mean duration of sedation/LOC ([2]; Cohort 1: 5 mg/kg bolus): 4.2 min
Duration - range ([2]; Cohort 2: 10 mg/kg bolus): 0 to 24 min
Mean duration of sedation/LOC ([2]; Cohort 2: 10 mg/kg bolus): 14 min
Duration - range ([2]; Cohort 3: 20 mg/kg bolus): 22 to 45 min
Mean duration of sedation/LOC ([2]; Cohort 3: 20 mg/kg bolus): 39.5 min
Duration - range ([2]; Cohort 4: 25 mg/kg bolus): 42 to 78 min
Mean duration of sedation/LOC ([2]; Cohort 4: 25 mg/kg bolus): 57.8 min
Duration - range ([2]; Cohort 5: 15 mg/kg bolus): 18 to 34 min
Lowest OAA/S Score (subjects - score) ([2]; Cohort 5: 15 mg/kg bolus): 6/6 - 1 (LOC)
Mean duration of sedation/LOC ([2]; Cohort 5: 15 mg/kg bolus): 22.6 min
Duration - range ([2]; Cohort 6: 30 mg/kg bolus): 43 to 96 min
Mean duration of sedation/LOC ([2]; Cohort 6: 30 mg/kg bolus): 54.3 min
State observed after bolus ([2]; bolus doses of 15 mg/kg and higher): induced unconscious states that varied in duration
State observed after bolus ([2]; dose ranges of 5-10 mg/kg): Conscious sedation, but no loss of consciousness
OAA/S scale value after 60 minutes ([3]; TCI infusion, initial propofol target 1.8 μg/ml, mean±SD): 3.7±1.1
Time after stopping the infusion to recovery to OAA/S scale value of 5 ([3]; after 2 hour TCI infusion, mean±SD): 18 ± 3 min
Systolic BP after decrease ([3]; decreased from 134±14): 106±10 mm Hg
BIS value ([3]; during the first hour of infusion (96±2 before infusion)): 74±13
BIS value ([3]; during the second hour of infusion): 64±14
Heart rate increase ([3]; from 64±14 to 72±8): 13%
Systolic BP decrease ([3]; from 134±14 to 106±10 mm Hg): 21%
Heart rate after increase ([3]; increased from 64±14): 72±8
Time after TCI target change until OAA/S scale value in target range of 2 to 3 ([3]; target changed at 60 minutes, mean±SD): 4.2 ± 2.5 min
Loss of consciousness (LOC) reached ([4]; 5 mg/kg single bolus cohort): no LOC was reached
Loss of consciousness (LOC) reached ([4]; 10 mg/kg single bolus cohort): no LOC was reached
Loss of consciousness (LOC) reached ([4]; 20 mg/kg single bolus cohort): all subjects reached LOC
Loss of consciousness (LOC) reached ([4]; 25 mg/kg single bolus cohort): all subjects reached LOC
Pain on injection, incidence [4]: only reported for propofol
Apnea, incidence [4]: 7 of 24
Initial increase in heart rate (HR>90 bpm), incidence [4]: 17 of the 24
Time of BISpeak (lowest BIS level) [4]: 630 ± 225 s
DOU (duration of unconsciousness) [4, 6]: 1507 ± 914 s
Time to LOC [4, 6]: 157 ± 69 s
Time to ROC [4, 6]: 1664 ± 920 s
DOU (duration of unconsciousness) [4, 7]: 2703 ± 267 s
Time to LOC [4, 7]: 162 ± 40 s
Time to ROC [4, 7]: 2865 ± 245 s

CC(C)c1cccc(C(C)C)c1O [propofol, 2,6-diisopropylphenol]
Time to LOCR (loss of corneal reflex) [1]: 19 ± 6 min
Time to ROC (recovery of consciousness) [1]: 47 ± 10 min
Time to ROCR (recovery of corneal reflex) [1]: 32 ± 10 min
Time to LOC (loss of consciousness) [1]: 13 ± 2 min
Pain on injection, incidence [4]: 10 of the 24
Apnea, incidence [4]: 10 of 24
Initial increase in heart rate (HR>90 bpm), incidence [4]: 4 of the 24
Time of BISpeak (lowest BIS level) [4]: 358 ± 315 s
DOU (duration of unconsciousness) [4, 6]: 416 ± 94 s
Time to LOC [4, 6]: 184 ± 63 s
Time to ROC [4, 6]: 600 ± 105 s
DOU (duration of unconsciousness) [4, 7]: 748 ± 245 s
Time to LOC [4, 7]: 208 ± 84 s
Time to ROC [4, 7]: 956 ± 294 s
Respiratory consequences, including reduction in tidal volume and apnea: share of patients [5]: up to 83%
